Measurements as given in patent US4540689A, “Penicillin derivative” (Kureha Kagaku Kogyo Kabushiki Kaisha, priority 1981, dated 1985).
≈ marks a conversion by molar mass, not a printed value.

How the values were obtained:
[1] = test system: Staphylococcus aureus IAM 1011; test: Antibacterial activity (MIC), agar plate, Staph. aureus; format: cell-based; conditions: Staph. aureus IAM 1011, Mueller-Hinton agar, 37° C., 18 to 24 hours; unit assumed
Description: (§1) Antibacterial activity of the present compounds was examined as follows.
(§2) Antibacterial activity of each of the present compounds was examined against the following two bacteria according to the standard method of Japan Society of Chemotherapy:
Staphylococcus aureus IAM 1011
(§3) Each bacterial strain was inoculated into the Mueller-Hinton's culture medium and cultured at 37° C. for 18 to 48 hours. The culture medium was diluted so as to contain 1×10^6 cells of the bacteria per one ml, and the obtained medium was used as the bacterial specimen.
(§4) Agar plates were prepared by adding one part by weight of each solution of the present compounds having a predetermined concentration to nine parts by weight of Mueller-Hinton's culture medium.
(§5) A loopful amount of the bacterial specimen prepared above was smeared to make a streak of about 2 cm on each agar plate and cultured at 37° C. for 18 to 24 hours. The minimum concentration for completely inhibiting proliferation of the bacteria (referred as MIC) was determined.

Lactobacillus bifidus = test: Effect on intestinal bacterial colonies, L. bifidus count in feces; format: in vivo; conditions: female ICR mice, oral 500 mg/kg/day for two days, first day after administration; before administration 8.4
Description: (§6) Effect of the present compounds on the intestinal bacterial colonies was examined.
(§7) Each of the present compounds was orally administered to mice (one group consisting of five female ICR mice of 6-week-old) for two consecutive days at a dose of 500 mg/kg/day.
(§8) Before and on the first day after the administration, feces of each mouse was collected and diluted with an anerobic diluent (phosphoric buffer solution) of 100 times volume and ground. 0.1 ml of the diluted and ground feces was smeared on each culture medium shown in Table 1 and cultured aerobically or anaerobically (according to the anaerobic glove box method) under each condition shown in Table 1.
BS agar anaerobic, 37° C., five

Escherichia coli = test: Effect on intestinal bacterial colonies, E. coli count in feces; format: in vivo; conditions: female ICR mice, oral 500 mg/kg/day for two days, first day after administration; before administration 6.4
Description: as §6, §7, §8
DHL agar aerobic, 37° C., one day

Streptococcus spp. = test: Effect on intestinal bacterial colonies, Streptococcus count in feces; format: in vivo; conditions: female ICR mice, oral 500 mg/kg/day for two days, first day after administration; before administration 6.8
Description: as §6, §7, §8
TATAC agar aerobic, 37° C., one day

[2] = test system: Escherichia coli IFO 12734; test: Antibacterial activity (MIC), agar plate, E. coli; format: cell-based; conditions: E. coli IFO 12734, Mueller-Hinton agar, 37° C., 18 to 24 hours; unit assumed
Description: as §1, §2
Escherichia coli IFO 12734 and
as §3, §4, §5

Bacteroides = test: Effect on intestinal bacterial colonies, Bacteroides count in feces; format: in vivo; conditions: female ICR mice, oral 500 mg/kg/day for two days, first day after administration; before administration 8.3
Description: as §6, §7, §8
Bacteroides NBGT agar anaerobic, 37° C., five

Pseudomonas aeruginosa = test: Effect on intestinal bacterial colonies, Ps. aeruginosa count in feces; format: in vivo; conditions: female ICR mice, oral 500 mg/kg/day for two days, first day after administration; before administration <3.0
Description: as §6, §7, §8
NAC agar aerobic, 37° C., one day

[3] = test system: Lactobacillus acidophilus; test: Effect on intestinal bacterial colonies, L. acidophilus count in feces; format: in vivo; conditions: female ICR mice, oral 500 mg/kg/day for two days, first day after administration; before administration 9.0
Description: as §6, §7, §8
Lactobacillus acidophilus
LBS agar anaerobic, 37° C., five

[4] = test system: Staphylococcus aureus IAM 1011; test: Activation by rat liver homogenate (S-9 mix), penicillin cup proliferation-inhibiting circle; format: cell-based; conditions: compound solution 100 μg/ml, ratio of circle diameter to conventional penicillin antibiotic
Description: As an enzyme for activating metabolism, a rat liver homogenate (S-9, manufactured by Oriental Yeast Company, Japan) was used in the following composition per one ml (hereinafter referred to as S-9 mix).
0.1 ml of each solution of the present compounds at a concentration of 100 μg/ml was mixed with 0.9 ml of S-9 mix or 0.9 ml of 0.1M phosphoric buffer solution (as a control) and the obtained mixture was incubated at 37° C. for 20 min with shaking.
Staphylococcus aureus IAM 1011 was inoculated into a Mueller-Hinton's culture medium and cultured at 37° C. for 18 hours. The culture medium was adjusted to a cell concentration of 1×10^8 per one ml and mixed with 50 times by volume of Mueller-Hinton's agar culture medium to obtain an agar plate.
A penicillin cup of 8 mm in diameter was placed on the agar plate prepared above, and into the cup 0.1 ml of the mixture was introduced and allowed to stand at 4° C. for 2 hours and then cultured at 37° C. for 18 hours to measure the diameter of a circle in which the proliferation of bacteria was inhibited (proliferation-inhibiting circle). In Table 4, the proliferation-inhibitingindex is shown with the ratio (%) of the diameter of the proliferation-inhibiting circle obtained by using each of the present compounds to that obtained by using the comparative compound (conventionalpenicillin antibiotic).

With `COCOC(=O)[C@@H]1N2C(=O)[C@@H](NC(=O)COc3ccccc3)[C@H]2SC1(C)C` [Example 9] the MIC, Staph. aureus [1] was 12.5 µg/mL (≈ 31.7 µM), the “Logarithmic value of the number of bacterial cells per one gram of feces, L. bifidus” value (Lactobacillus bifidus) was 8.5 logarithmic value; cells per o and the “Logarithmic value of the number of bacterial cells per one gram of feces, E. coli” value (Escherichia coli) was 6.5 logarithmic value; cells per o. The “Logarithmic value of the number of bacterial cells per one gram of feces, Strept. spp.” value (Streptococcus spp.) was 7.0 logarithmic value; cells per o, the MIC, E. coli [2] was at least 25 µg/mL and the “Logarithmic value of the number of bacterial cells per one gram of feces, Bacteroides” value (Bacteroides) was 8.1 logarithmic value; cells per o. The “Logarithmic value of the number of bacterial cells per one gram of feces, Ps. aeruginosa” value (Pseudomonas aeruginosa) was 3.2 logarithmic value; cells per o, the “Logarithmic value of the number of bacterial cells per one gram of feces, L. acidophilus” value [3] was 9.5 logarithmic value; cells per o and the “Proliferation-inhibiting index (%), after adding S-9 mix” value ([4]; incubated with S-9 mix 37° C., 20 min) was “++ (33-66)”. For the same compound, the “Proliferation-inhibiting index (%), before adding S-9 mix” value ([4]; phosphoric buffer control without S-9) was “+ (1-33)”.
